Earlier results, collected in US20090226522A1, “PROCESS TO MINIMIZE POLYMORPHISM” (priority 2008, published 2009).
Where two headings read alike, the source gives them in different places.

For `Cc1nnc2n1-c1ccc(Cl)cc1C(c1ccccc1)=NC2` [Alprazolam, 8-chloro-1-methyl-6-phenyl-4H-s-triazolo[4,3-α][1,4]benzodiazepine], the “solubility in methanol or ethanol” value (methanol or ethanol) is listed as “soluble”, the solubility in water (water) is listed as “poorly soluble” and the solubility in water (water at physiological pH) is listed as “no appreciable solubility”.
